Consider one compound from patent publication US11229611B2, “Clobazam transdermal delivery system and uses thereof” (TAHO Pharmaceuticals Ltd., priority 2020, dated 2022).

In brackets after ≈: the same amount, converted by molar mass.

Data set [1] is described as follows: solubility and compatibility of clobazam in a variety of excipients. Type of data set: physicochemical. The protocol: Solubility and compatibility of clobazam were tested in a variety of excipients according to the following functions: (1) alcohols; (2) emollients/oils; (3) esters; (4) fatty acids; (5) fatty acid esters; (6) fatty alcohols; (7) solubilizers; (8) solvents; and (9) surfactants.

For data set [2], the system named is isolated human cadaver epidermis. The data set is described as follows: flux through skin of EVA/PIB multilaminate formulations. It counts as in vitro ADME. The text has this: In certain embodiments, the adhesive composition contains the HMW and LMW PIB in weight ratios (HMW PIB: LMW PIB) in the range of about 3-40:97-60, in the range of about 5-25:95-75 and in the range of about 10-20:90-80. The ratio of HMW PIE to LMW PIE that provides an optimal adhesive for a specific drug agent will be dependent upon the identity and concentration of agent being delivered. As an example, in one effective embodiment the PIB adhesive includes 5 wt % HMW PIB material (such as OPPANOL L80, LlOO, and L 140 from BASF) and 95 wt % LMW PIB material (Such as OPPANOL BlO, BI 1, B12, and B13 from BASF).
Optionally, modification of flux of the drug through the PIB can be effected by incorporating in the adhesive material such as micronized, crosslinked polyvinylpyrrolidone (PVP), such as CROSPOVIDONE (Kollidon CL-CY from BASF typically with bulk density between 0.2-0.3 g/cm3 and particle size D90 of 10-20 micron). Such PVP improves the permeability of clobazam material through the PIB layer.
Varying the amounts of CROSPOVIDONE in the PIB adhesive would result in fine-tuning the flux of clobazam to desired levels. For example, multilaminate formulations containing different PVP amounts were tested for the effect of such variation on flux through skin. The multilaminate formulations contained 35 wt % of clobazam base in EVA40, an EVA12 as tie layer and PIB adhesive (5:95 L100:B12 PIB) with 12 wt % or 18 wt % PVP were tested. […] A formulation containing 30 wt % clobazam base and 15 wt % PVP was also tested. The flux of clobazam formulation from this formulation was 6.3μg/(cm^2 h). […] PIB polymers are available commercially, e.g., under the tradename VISTANEX™ from Exxon Chemical. The amount of PVP in the resulting adhesive can be about 1 wt % to 30 wt %, about 5 wt % to 25 wt %, about 8 wt % to 20 wt %.
Transdermal flux can be measured with a standard procedure using Franz cells or using an array of formulations. Flux experiments were done on isolated human cadaver epidermis. With Franz cells, in each Franz diffusion cell a disc of epidermis is placed on the receptor compartment. A transdermal delivery system is placed over the diffusion area (1.98 cm^2) in the center of the receptor. The donor compartment is then added and clamped to the assembly. At time 0, receptor solution (between […] and 24 ml, exactly measured) is added into the receptor compartment and the cell maintained at 35° C. This temperature yields a skin surface temperature of 30-32° C. Samples of the receptor compartment are taken periodically to determine the flux through skin and analyzed by HPLC. An alternative way to test flux is to use an array of patches. In testing flux with an array of transdermal miniature patches, formulations are prepared by mixing stock solutions of each of the mixture components of formulation in organic solvents (about 15 wt % solids), followed by a mixing process. The mixtures are then aliquoted onto arrays as 4-mm diameter drops and allowed to dry, leaving behind solid samples or “dots.” (i.e., mini-patches). The miniature patches in the arrays are then tested individually for flux through skin using a permeation array, whose principle of drug flux from a patch formulation through epidermis to a compartment of receptor medium is similar to that of Franz cells (an array of miniature cells). […] Receptor fluid is auto-sampled from each of the permeation wells at regular intervals and then measured by HPLC to determine the flux of the drug.

For data set [3] the following is noted: cited from earlier work.

As for `CN1C(=O)CC(=O)N(c2ccccc2)c2cc(Cl)ccc21` [clobazam, 7-Chloro-1-methyl-5-phenyl-1,5-dihydro benzo[b][1,4]diazepine-2,4-dione], the “solubility among various alcohols” value in data set [1] (in 4-allyl-2-ethoxyphenol) is “good solubility”. The “solubility among various surfactants, polymers and oils” value in data set [1] (in Caprylocaproyl polyoxyl-8 glycerides and transcutol P) is recorded as “some solubility”. Further, the solubility in solvents result in data set [1] (in DCM, chloroform, DMA, DMI, DMSO and NMP) is listed as “good solubility”. For the same compound, the “solubility among various fatty acids and fatty acid esters” value in data set [1] (in methyl L-lactate, levulinic acid and ethyl levulinate) was “good solubility”. Besides, the “average clobazam base flux” value in data set [2] (5:95 L100:B12 PIB adhesive with 20 wt % CROSPOVIDONE) is recorded as 33.3 μg/(cm^2-h). In addition, the flux in data set [2] (35 wt % clobazam base in EVA40, EVA12 tie layer, PIB adhesive (5:95 L100:B12) with 12 wt % PVP) is recorded as 5.4 μg/(cm^2 h); in data set [2] (35 wt % clobazam base in EVA40, EVA12 tie layer, PIB adhesive (5:95 L100:B12) with 18 wt % PVP) it was 7.5 μg/(cm^2 h); in data set [2] (formulation with 30 wt % clobazam base and 15 wt % PVP), 6.3 μg/(cm^2 h). The “clobazam base average flux” value in data set [2] (clobazam 35 wt % in EVA40 drug layer 4-7 mil, PIB adhesive 5 wt % HMW / 95 wt % LMW, 2-3 mil) is 5.5 μg/cm^2-h. Besides, the solubility in water in data set [3] (water at 25° C.) is given as 70 microgram/ml. Besides, the “water Solubility” value in data set [3] (water) was 164 µg/mL (≈ 545 µM).
